Values after ≈ are worked out from the molar mass of the structure shown. Where a name gives a salt, the structure may show the parent alone. Read-outs that look alike come from different tables or passages of the source.
Tests used:
Bovine brain tubulin = test: In vitro tubulin polymerization assay (bovine brain tubulin); format: biochemical; conditions: 10 μM, 20 min incubation, versus vehicle
MES-SA/DX5 = test: SRB growth inhibition assay, P-gp over-expressing MES-SA/DX5 cells; format: cell-based; conditions: ratio of IC50 MES-SA/DX5 to MES-SA
[1] = Metabolic stability in mouse liver microsomes; format: in vitro ADME; conditions: mouse, liver microsomes
[2] = Metabolic stability in rat liver microsomes; format: in vitro ADME; conditions: rat, liver microsomes, pH 7.4; phase I pathway; read-out: T ½ (min), rat liver microsomes
[3] = Metabolic stability in hamster liver microsomes; format: in vitro ADME; conditions: pH 7.4, phase I pathway, read-out: T ½ (min), hamster liver microsomes
[4] = Metabolic stability in rabbit liver microsomes; format: in vitro ADME; conditions: pH 7.4, phase I pathway, read-out: T ½ (min), rabbit liver microsomes
[5] = Metabolic stability in guinea pig liver microsomes; format: in vitro ADME; conditions: pH 7.4, phase I pathway, read-out: T ½ (min), guinea pig liver microsomes
[6] = Metabolic stability in dog liver microsomes; format: in vitro ADME; conditions: dog, pH 7.4
[7] = Metabolic stability in monkey liver microsomes; format: in vitro ADME; conditions: monkey, pH 7.4
in vivo = conditions: male, ICR, mouse, plasma, 5 mg/kg; for Vd / clearance: iv
[8] = Metabolic stability in human liver microsomes; conditions: human, liver microsomes, pH 7.4
B16-F1 = test: SRB cytotoxicity assay, B16-F1 mouse melanoma cells; format: cell-based; conditions: Table 12, 48 h, read-out: IC50 ± SEM B16-F1 (converted)
WM-164 = test: SRB cytotoxicity assay, WM-164 human melanoma cells; format: cell-based; conditions: Table 12, 48 h, read-out: IC50 ± SEM WM164 (converted)
A375 = test: SRB cytotoxicity assay, A375 human melanoma cells; format: cell-based; conditions: Homo sapiens, A-375, 48 h, Table 12, 48 h; read-out: IC50 ± SEM A375
[9] = test system: melanoma and prostate cancer cell lines; test: SRB cytotoxicity, summary or average over melanoma and prostate cancer cell lines; format: cell-based; conditions: average of all seven cell lines
[10] = Water solubility, 48 h shaking in water, LC-MS; format: physicochemical
Description: Determination of water solubility. […] The suspension was centrifuged at 10,000 rpm for 10 min and filtered on 0.22 μm filter. Concentrations of each compound were measured by LC-MS, consisting of an HP S1100 HPLC instrument (Agilent, Foster ceity, CA) and a Bruker ESQUIRE MS detector with electrospray/ion trap instrument in positive ion mode (Bruker, Fremont, CA). For HPLC, a reverse phase Nova-pak C18 column (150 mm×3.9 mm, Waters, Milford, MA) was used. The mobile phase was composed of 20:80 v/v water/acetonitrile. […] The concentration of each compound was calculated by MS peak area according to the following calibration equation: y=1.3295x+114.24 (R^2=1.00). […] The amount (ng) in each injection was plotted again its relative mass peak area to generate the standard curve in FIG. 17.

DU 145 = test: SRB cytotoxicity assay, DU 145 prostate cancer cells; format: cell-based; conditions: Homo sapiens, read-out: inhibitory effects DU145
Source text: (§1) Cells were stained with SRB solution.

PC-3 = test: SRB cytotoxicity assay, PC-3 prostate cancer cells; format: cell-based, human; conditions: Homo sapiens, PC-3, read-out: inhibitory effects PC3
Source text: as §1

LNCaP = test: SRB cytotoxicity assay, LNCaP prostate cancer cells; format: cell-based, human; conditions: Homo sapiens, LNCaP, read-out: inhibitory effects LNCaP
Source text: as §1

PPC-1 = test: SRB cytotoxicity assay, PPC-1 prostate cancer cells; format: cell-based, human; conditions: Homo sapiens, PPC-1; Table 13B; read-out: inhibitory effects PPC1
Source text: as §1

MDA-MB-435 = test: SRB cytotoxicity assay, MDA-MB-435 parental melanoma cells; format: cell-based; conditions: Homo sapiens, read-out: IC50 ± SEM MDA-MB-435
MDA-MB-435/LCCMDR1 = test: SRB cytotoxicity assay, multidrug-resistant MDA-MB-435/LCCMDR1 melanoma cells; format: cell-based, human; conditions: Homo sapiens, read-out: IC50 ± SEM MDA-MB-435/LCC6MDR1
DU145/TXR = test: SRB growth inhibition, paclitaxel-resistant DU145/TXR cells; format: cell-based; conditions: Homo sapiens, DU-145; Table 13A; read-out: inhibitory effects DU145/TXR
WM-164 melanoma cells = test: Microtubule imaging (immunofluorescence) in WM-164 melanoma cells; format: cell-based, human; conditions: 18 h
Source text: Primary antibody for tubulin and fluorescence-labeled secondary antibody were subsequently added to the cells. Cell nuclei were stained by DAPI. Whole Cell Stain Green was also applied to all cells. All images were acquired with an Olympus IX71 inverted fluorescence microscope (Olympus Corp., Tokyo, Japan) with overlays from separate images of tubulin (red), nuclei (blue), and whole cells (green).

PC-3/TxR tumors = conditions: for tumor growth inhibition (TGI): day 1 and 9
[11] = Brain penetration (brain and plasma concentrations) in nude mice; conditions: IP 10 mpk, mean ± SD
[12] = pH 7.4, Table 20, read-out: Half life in Mouse liver microsome
[13] = pH 7.4, phase I pathway, read-out: T ½ (min), mouse liver microsomes
[14] = dog liver microsomes, Table 20, read-out: Half life in Dog liver microsome
[15] = liver microsomes, phase I pathway, read-out: T ½ (min), dog liver microsomes
[16] = liver microsomes, phase I pathway, read-out: T ½ (min), monkey liver microsomes
[17] = monkey liver microsomes, Table 20, read-out: Half life in Monkey liver microsome
[18] = PC-3/TxR xenograft, IV 10 mpk, day 1 and 9, end point day 19

## COc1cc(C(=O)c2cccc(-c3ccccc3)n2)cc(OC)c1OC [1c, (6-Phenylpyridin-2-yl)(3,4,5-trimethoxyphenyl)methanone]
Bovine brain tubulin
  inhibition of tubulin polymerization: 64%

## COc1cc(-c2nccc3ccc(-c4ccc5[nH]ccc5c4)cc23)cc(OC)c1OC [6a]
MES-SA/DX5
  Resistance factor: 1.5
[1]; [12]
  half-life at 0.5 μM: 3.43 min
[1]; [13]
  half-life at 0.5 μM: 3.4 min
[2]
  half-life at 0.5 μM: 12 min
[3]
  half-life at 0.5 μM: 6 min
[4]
  half-life at 0.5 μM: 17 min
[5]
  half-life at 0.5 μM: 15 min
[6]; [14]
  half-life at 0.5 μM: 13 min
[6]; [15]
  half-life at 0.5 μM: 13 min
[7]; [16]
  half-life at 0.5 μM: 16 min
[7]; [17]
  half-life at 0.5 μM: 16 min
In vivo; ip
  AUC: 983 ng·h/mL
  Cmax: 678 ng/mL
  bioavailability: 60%
In vivo
  Vd: 2.3 L/kg
  clearance: 51 mL/min/kg
In vivo; po
  AUC: 83.3 ng·h/mL
  Cmax: 6.7 ng/mL
  bioavailability: 5%
[8]
  half-life at 0.5 μM: 32 min

## c1cc2ccc(-c3ccc4[nH]ccc4c3)cc2c(-c2ccc3[nH]ccc3c2)n1 [6b, 1,7-Bis-(1H-indol-5-yl)-isoquinoline]
MES-SA/DX5
  Resistance factor: 1.4
[1]; [12]
  half-life at 0.5 μM: 10 min
[1]; [13]
  half-life at 0.5 μM: 10 min
[2]
  half-life at 0.5 μM: 9 min
[3]
  half-life at 0.5 μM: 11 min
[4]
  half-life at 0.5 μM: 16 min
[5]
  half-life at 0.5 μM: 15 min
[6]; [14]
  half-life at 0.5 μM: 30 min
[6]; [15]
  half-life at 0.5 μM: 30 min
[7]; [16]
  half-life at 0.5 μM: 13 min
[7]; [17]
  half-life at 0.5 μM: 13 min
In vivo; ip
  AUC: 3630 ng·h/mL
  Cmax: 1500 ng/mL
  bioavailability: 60%
In vivo
  Vd: 1.1 L/kg
  clearance: 14 mL/min/kg
In vivo; po
  AUC: 117 ng·h/mL
  Cmax: 50 ng/mL
  bioavailability: 2.1%
[8]
  half-life at 0.5 μM: 40 min

## Fc1ccc(-c2nccc3ccc(-c4ccc5[nH]ccc5c4)cc23)cc1 [6c, 1-(4-Fluoro-phenyl)-7-(1H-indol-5-yl)-isoquinoline]
[1]; [12]
  half-life at 0.5 μM: 13 min
[1]; [13]
  half-life at 0.5 μM: 13 min
[2]
  half-life at 0.5 μM: 14 min
[3]
  half-life at 0.5 μM: 20 min
[4]
  half-life at 0.5 μM: 16 min
[5]
  half-life at 0.5 μM: 8 min
[6]; [14]
  half-life at 0.5 μM: 29 min
[6]; [15]
  half-life at 0.5 μM: 29 min
[7]; [16]
  half-life at 0.5 μM: 9 min
[7]; [17]
  half-life at 0.5 μM: 9 min
In vivo; ip
  AUC: 917 ng·h/mL
  Cmax: 1100 ng/mL
  bioavailability: 33%
In vivo
  Vd: 1.8 L/kg
  clearance: 30 mL/min/kg
In vivo; po
  AUC: 66.7 ng·h/mL
  Cmax: 50 ng/mL
  bioavailability: 2.7%
[8]
  half-life at 0.5 μM: 47 min

## Cc1ccc(-c2nc(C(=O)c3ccc(F)cc3)c[nH]2)cc1 [12db-HCl, (4-fluorophenyl)(2-(p-tolyl)-1H-imidazol-4-yl)methanone hydrochloride]
B16-F1; hydrochloride
  IC50: 0.297 µM
WM-164; hydrochloride
  IC50: 0.112 µM

## COc1cc(-c2nc(C(=O)c3ccc(F)cc3)c[nH]2)cc(OC)c1OC [12eb, (4-fluorophenyl)(2-(3,4,5-trimethoxyphenyl)-1H-imidazol-4-yl)methanone]
B16-F1; Mus musculus, B16-F1, 48 h
  IC50: > 10 µM
A375
  IC50: > 10 µM
WM-164; Homo sapiens, WM164, 48 h
  IC50: > 10 µM

## COc1cc(C(=O)c2c[nH]c(-c3ccc(N(C)C)cc3)n2)cc(OC)c1OC [12ga, (2-(4-(dimethylamino)phenyl)-1H-imidazol-4-yl)(3,4,5-trimethoxyphenyl)methanone]
[9]
  IC50: 0.131 µM
[10]
  water solubility, times greater than thiazole counterpart: about 200 times
[10]; thermodynamic from solid, water, 48 h, RT
  solubility at 48 h: 13 µg/mL (≈ 34.1 µM)

## O=C(c1ccccc1)c1nc(-c2ccccc2)c[nH]1 [70aa, phenyl-(4-phenyl-1H-imidazol-2-yl)methanone]
DU 145; Table 13B
  IC50: > 50 µM
PC-3; Table 13B
  IC50: > 50 µM
LNCaP; Table 13B
  IC50: > 50 µM
PPC-1
  IC50: > 50 µM
MDA-MB-435; Table 14D
  IC50: > 50 µM
MDA-MB-435/LCCMDR1; Table 14D
  IC50: > 50 µM

## COc1cc(C(=O)c2nc(-c3ccc(Br)cc3)c[nH]2)cc(OC)c1OC [70d, (4-(4-bromophenyl)-1H-imidazol-2-yl)(3,4,5-trimethoxyphenyl)methanone]
DU 145; Table 13A
  IC50: 0.066 µM
PC-3; Table 13A
  IC50: 0.033 µM
LNCaP; Table 13A
  IC50: 0.015 µM
DU145/TXR
  IC50: 0.063 µM

## COc1cc(C(=O)c2nc(-c3cc(OC)c(OC)c(OC)c3)c[nH]2)cc(OC)c1OC [70q, 3,4,5-trimethoxyphenyl-(4-(3,4,5-trimethoxyphenyl)-1H-imidazol-2-yl)methanone]
DU 145; Table 13B
  IC50: > 50 µM
PC-3; Table 13B
  IC50: > 50 µM
LNCaP; Table 13B
  IC50: > 50 µM
PPC-1
  IC50: > 50 µM
MDA-MB-435; Table 14D
  IC50: 0.149 µM
MDA-MB-435/LCCMDR1; Table 14D
  IC50: 0.211 µM

## CCc1[nH]c(Cc2cc(OC)c(OC)c(OC)c2)nc1-c1ccccc1 [102c, 5-ethyl-4-phenyl-2-(3,4,5-trimethoxybenzyl)-1H-imidazole]
MDA-MB-435; Table 14C
  IC50: > 50 µM
MDA-MB-435/LCCMDR1; Table 14C
  IC50: > 50 µM

## CCCc1[nH]c(Cc2cc(OC)c(OC)c(OC)c2)nc1-c1ccccc1 [102d, 4-phenyl-5-propyl-2-(3,4,5-trimethoxybenzyl)-1H-imidazole]
MDA-MB-435; Table 14C
  IC50: 11 µM
MDA-MB-435/LCCMDR1; Table 14C
  IC50: 15.9 µM

## COc1ccc(S(=O)(=O)Nc2cccnc2Nc2ccc(O)cc2)cc1 [ABT-751, reference compound]
WM-164 melanoma cells
  effect on microtubules: microtubule fragmentation

## COc1cc(C(=O)c2csc(-c3ccc(N(C)C)cc3)n2)cc(OC)c1OC [corresponding thiazole analog]
[10]; water, 48 h, RT
  water solubility: 0.072 µg/mL (≈ 0.181 µM)

## CC(=O)O[C@@]12CO[C@@H]1C[C@H](O)[C@@]1(C)C(=O)[C@H](O)C3=C(C)[C@@H](OC(=O)[C@H](O)[C@@H](NC(=O)OC(C)(C)C)c4ccccc4)C[C@@](O)([C@@H](OC(=O)c4ccccc4)[C@H]21)C3(C)C [docetaxel, Docetaxel]
PC-3/TxR tumors; [18]
  TGI: 14%
  Tumor size End: 1774 ± 183 mm^3
PC-3/TxR tumors; PC-3/TxR xenograft, IV 20 mpk, day 1 and 9, end point day 19
  TGI: 56%
PC-3/TxR tumors; i.v. 10 mg/kg
  tumor growth inhibition (TGI): 14%
PC-3/TxR tumors; i.v. 20 mg/kg
  tumor growth inhibition (TGI): 56%
[11]; 1 hr
  Brain: 33 ± 14 ng/mL
  Plasma: 768 ± 92 ng/mL
[11]; 4 hr
  Brain: 20 ± 9 ng/mL
  Plasma: 345 ± 94 ng/mL

Reference: patent US12187720B2, “Compounds for treatment of cancer” (ONCTERNAL THERAPEUTICS, INC., priority 2010, dated 2025)
